Laboratory results as given in patent publication US5910498A, “Pyridonecarboxylic acid derivatives or salts thereof and antibacterial agents comprising the same as active ingredient” (Wakunaga Seiyaku Kabushiki Kaisha, priority 1994, dated 1999).
In brackets after ≈: the same amount, converted by molar mass.

Experiments:
[1] = system: S. aureus 209P; experiment: Antibacterial action, MIC against S. aureus 209P (standard method of the Japanese Chemotherapy Society); assay type: cell-based; settings: Staphylococcus aureus, read-out: minimum growth-inhibition concentration (MIC)
Protocol: (§1) A minimum growth-inhibition concentration (MIC: μg/ml) was measured according to the standard method of the Japanese Chemotherapy Society (CHEMOTHERAPY, 29 (1), 76, 1981).

[2] = system: P. aeruginosa IFO3445; experiment: Antibacterial action, MIC against P. aeruginosa IFO3445 (standard method of the Japanese Chemotherapy Society); assay type: cell-based; settings: Pseudomonas aeruginosa, read-out: minimum growth-inhibition concentration (MIC)
Protocol: as §1

[3] = system: female ICR mouse; experiment: Phototoxicity test, ear abnormality after UV irradiation; assay type: in vivo; settings: 40 mg/kg i.v., UV 320-400 nm 4 hours; for Frequency (ear abnormality), 0 hour / Frequency (ear abnormality), 24 hours / Frequency (ear abnormality), 48 hours: affected/total mice; for Rating (ear abnormality), 0 hour / Rating (ear abnormality), 24 hours / Rating (ear abnormality), 48 hours: point 0 no abnormality, 1 light, 2 medium erythema, 3 heavy erythema or edema
Protocol: After a compound to be tested (40 mg/kg/10 ml) was intravenously administered to a female ICR mouse (5-6 weeks old), ultraviolet radiation (320 to 400 nm, 1.8 mW/cm^2 /sec.) was irradiated for 4 hours. […] Ear abnormality was rated point 0 for no abnormality, point 1 for light erythema, point 2 for medium erythema, and point 3 for heavy erythema or edema.

[4] = system: CHL cells; experiment: Chromosomal aberration test, CHL cells; assay type: cell-based; settings: 0 to 200 μg/ml; metabolic activation method (S9) and direct method 24 and 48 hours
Protocol: CHL cells (0.2 to 2×10^5 cells/well) suspended in an Eagle's MEM medium having 10% bovine fetal serum added thereto were incubated in a 60-mm dish. After the cells were cultured at 37° C. for 4 to 72 hours in the presence of 5% CO2, the medium was replaced by a medium containing an agent in a different concentration and culturing was continued under the same conditions. In the case of a metabolic activation method (S9 added medium), after 6 hours of culturing, the medium was replaced by a medium free of an agent and S9 and culturing was continued for a further 18 hours. In the case of a direct method, the cells were cultured in two ways for 24 hours and 48 hours. At the end of culturing, a chromosome sample was prepared according to the method prescribed by the Japan Surrounding Mutagen society.

SMILES	MIC [1] [µg/mL]	MIC [2] [µg/mL]	Frequency (ear abnormality), 0 hour [3]	Rating (ear abnormality), 0 hour [3]	Frequency (ear abnormality), 24 hours [3]	Rating (ear abnormality), 24 hours [3]	Frequency (ear abnormality), 48 hours [3]	Rating (ear abnormality), 48 hours [3]	Chromosomal aberration (rate of structural aberration) [4]
Nc1cc(-n2cc(C(=O)O)c(=O)c3cc(F)c(N4CC[C@H](N)C4)nc32)c(F)cc1F [Example 48, 1-(3-amino-4,6-difluorophenyl)-7-[(3S)-3-aminopyrrolidin-1-yl]-6-fluoro-1,4-dihydro-4-oxo-1,8-naphthyridine-3-carboxylic acid]	0.025 (≈ 0.0596 µM)	0.1 (≈ 0.238 µM)	0/3	0	0/3	0	0/3	0	negative
C[C@@H]1CN(c2nc3c(cc2F)c(=O)c(C(=O)O)cn3-c2cc(N)c(F)cc2F)C[C@H]1N [Example 56, 1-(3-amino-4,6-difluorophenyl)-7-[(3S,4R)-3-amino-4-methylpyrrolidin-1-yl]-6-fluoro-1,4-dihydro-4-oxo-1,8-naphthyridine-3-carboxylic acid]	0.025 (≈ 0.0577 µM)	0.1 (≈ 0.231 µM)	–	–	–	–	–	–	–
Nc1cc(-n2cc(C(=O)O)c(=O)c3cc(F)c(N4CC[C@H](N)C4)cc32)c(F)cc1F [Example 60, 1-(3-amino-4,6-difluorophenyl)-7-[(3S)-3-aminopyrrolidin-1-yl]-6-fluoro-1,4-dihydro-4-oxoquinoline-3-carboxylic acid]	0.013 (≈ 0.0311 µM)	0.1 (≈ 0.239 µM)	–	–	–	–	–	–	–
Nc1cc(-n2cc(C(=O)O)c(=O)c3cc(F)c(N4CC(N)C4)nc32)c(F)cc1F [Example 117, 7-(3-aminoazetidin-1-yl)-1-(3-amino-4,6-difluorophenyl)-6-fluoro-1,4-dihydro-4-oxo-1,8-naphthyridine-3-carboxylic acid]	0.05 (≈ 0.123 µM)	0.1 (≈ 0.247 µM)	0/3	0	0/3	0	0/3	0	negative
Nc1cc(-n2cc(C(=O)O)c(=O)c3cc(F)c(N4CC(N)C4)c(F)c32)c(F)cc1F [Example 150, 7-(3-aminoazetidin-1-yl)-1-(3-amino-4,6-difluorophenyl)-6,8-difluoro-1,4-dihydro-4-oxoquinoline-3-carboxylic acid]	0.025 (≈ 0.0592 µM)	0.2 (≈ 0.474 µM)	0/3	0	0/3	0	0/3	0	–
Nc1cc(-n2cc(C(=O)O)c(=O)c3cc(F)c(N4CC(N)C4)c(Cl)c32)c(F)cc1F [Example 152, 7-(3-aminoazetidin-1-yl)-1-(3-amino-4,6-difluorophenyl)-8-chloro-6-fluoro-1,4-dihydro-4-oxoquinoline-3-carboxylic acid]	< 0.013	0.05 (≈ 0.114 µM)	0/3	0	0/3	0	0/3	0	–
CC1(N)CN(c2c(F)cc3c(=O)c(C(=O)O)cn(-c4cc(N)c(F)cc4F)c3c2Cl)C1 [Example 156, 1-(3-amino-4,6-difluorophenyl)-7-(3-amino-3-methylazetidin-1-yl)-8-chloro-6-fluoro-1,4-dihydro-4-oxoquinoline-3-carboxylic acid]	< 0.013	0.1 (≈ 0.221 µM)	–	–	–	–	–	–	–
CNC1CN(c2c(F)cc3c(=O)c(C(=O)O)cn(-c4cc(N)c(F)cc4F)c3c2Cl)C1 [Example 157, 1-(3-amino-4,6-difluorophenyl)-8-chloro-6-fluoro-7-(3-methylaminoazetidin-1-yl)-1,4-dihydro-4-oxoquinoline-3-carboxylic acid]	< 0.013	0.1 (≈ 0.221 µM)	–	–	–	–	–	–	–
Nc1cc(-n2cc(C(=O)O)c(=O)c3c(O)c(F)c(N4CC[C@H](N)C4)cc32)c(F)cc1F [Example 160, 1-(3-amino-4,6-difluorophenyl)-7-[(3S)-3-aminopyrrolidin-1-yl]-6-fluoro-5-hydroxy-1,4-dihydro-4-oxoquinoline-3-carboxylic acid]	0.025 (≈ 0.0576 µM)	0.2 (≈ 0.46 µM)	0/3	0	0/3	0	0/3	0	–
Cc1c(F)c(N2CC[C@H](N)C2)cc2c1c(=O)c(C(=O)O)cn2-c1cc(N)c(F)cc1F [Example 162, 1-(3-amino-4,6-difluorophenyl)-7-[(3S)-3-aminopyrrolidin-1-yl]-6-fluoro-5-methyl-1,4-dihydro-4-oxoquinoline-3-carboxylic acid]	0.013 (≈ 0.0301 µM)	0.2 (≈ 0.463 µM)	–	–	–	–	–	–	–
NC1CCN(c2nc3c(cc2F)c(=O)c(C(=O)O)cn3-c2ccc(F)cc2F)C1 (stereo not drawn) [tosufloxacin, reference compound]	0.05 (≈ 0.124 µM)	0.39 (≈ 0.965 µM)	4/5	1.8	4/5	0.8	1/5	0.2	–
